Data: PubChem BioAssay (NCI)
Values joined by “and” are separate entries in the source; they are usually repeats but may differ in a detail not shown here. Equal entries are not always repeated.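 Grown in 96-well plates, cells were treated for 48 hours with each compound at five concentrations. Insufficient inhibition: endpoint recorded as highest concentration tested. Abbreviation: GI50, concentration required for 50% inhibition of growth. The concentration for full growth arrest is given as TGI.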

Tests used:
Assay in all cases: NCI tumour cell line growth inhibition, 48 h
HL-60(TB) leukemia = tested on: HL-60(TB) leukemia
EKVX NSCLC = tested on: EKVX NSCLC
TK-10 renal = tested on: TK-10 renal
A498 renal = tested on: A498 renal
SF-539 CNS = tested on: SF-539 CNS
NCI-H226 lung = tested on: NCI-H226 lung
SNB-75 CNS = tested on: SNB-75 CNS
786-0 renal = tested on: 786-0 renal
RPMI-8226 leukemia = tested on: RPMI-8226 leukemia
IGROV1 ovarian = tested on: IGROV1 ovarian

| Compound | GI50 (HL-60(TB) leukemia) | TGI (HL-60(TB) leukemia) | GI50 (EKVX NSCLC) | TGI (EKVX NSCLC) | GI50 (TK-10 renal) | TGI (TK-10 renal) | GI50 (A498 renal) | TGI (A498 renal) | GI50 (SF-539 CNS) | TGI (SF-539 CNS) | GI50 (NCI-H226 lung) | TGI (NCI-H226 lung) | GI50 (SNB-75 CNS) | TGI (SNB-75 CNS) | GI50 (786-0 renal) | TGI (786-0 renal) | GI50 (RPMI-8226 leukemia) | TGI (RPMI-8226 leukemia) | GI50 (IGROV1 ovarian) | TGI (IGROV1 ovarian) |
| --- | --- | --- | --- | --- | --- | --- | --- | --- | --- | --- | --- | --- | --- | --- | --- | --- | --- | --- | --- | --- |
| C=C1C(=O)O[C@H]2[C@H]1CC/C(COC(=O)c1cn(C)c3ccccc13)=C\CC[C@@]1(C)O[C@@H]21 | 1.54 µM | 4.17 µM | 0.962 µM | 3.42 µM | 1.1 µM | 2.3 µM | 1.59 µM | 3.05 µM | 0.741 µM | 2.13 µM | 1.48 µM | 3.26 µM | 1.09 µM | 2.32 µM | 1.46 µM | 2.88 µM | 0.217 µM | 0.665 µM | 0.692 µM | 2.58 µM |
| O=c1nc(NC(c2ccccc2)(c2ccccc2)c2ccccc2)ccn1CCCl |  | 54.9 µM |  | 61 µM |  | 56.2 µM |  | > 100 µM |  | 31.7 µM |  | 42.8 µM |  | 41.8 µM |  | 32 µM |  | 55.7 µM |  | 48.1 µM |
| COC1(OC)C2(Cl)C(Cl)=C(Cl)C1(Cl)C1c3ccc(C(C)=O)c4cccc(c34)C12 (configuration not stated) |  | 47.3 µM |  | > 100 µM |  | > 100 µM |  | 32.1 µM |  | > 100 µM |  | 81.4 µM |  | > 89.9 µM |  | > 100 µM |  | > 100 µM |  | > 100 µM |
| Cc1cc(C(=O)Nc2cc(Oc3ccc4nc(NC(=O)C5CC5)cn4n3)ccc2C)n(C)n1 | 9.56 µM | > 10 µM | > 10 µM | > 10 µM | > 10 µM | > 10 µM | > 10 µM | > 10 µM | 3.35 µM | > 10 µM | 0.86 µM | > 10 µM | > 10 µM | > 10 µM | > 10 µM | > 10 µM | > 10 µM | > 10 µM | 5.06 µM | > 10 µM |
| CCN(CCCl)CCCCCNc1c2ccccc2nc2ccc(OC)cc12 |  | 0.266 µM |  | 18.1 µM |  | 44.3 µM |  | 3.52 µM |  | 2.65 µM |  | 2.3 µM |  | 3.02 µM |  | 1.63 µM |  | 1.47 µM |  | 4.24 µM |
| O=C1C=C2C=CC3CC2(O1)C1CCCCN31 (configuration not stated) |  | 79.2 µM | 14.1 µM and 11.6 µM and 38.6 µM | 57.4 µM and 35.5 µM and > 100 µM | 17.3 µM and 13.6 µM and 31 µM | 79 µM and 41.4 µM and > 100 µM | 10.3 µM and 28.4 µM and 48.9 µM | 43.9 µM and 91.5 µM and > 100 µM | 12.7 µM and 27 µM and 23.2 µM | 35.8 µM and > 100 µM and 75.4 µM | 19.7 µM and 6 µM and 51.7 µM | > 100 µM and 45.3 µM | 24.2 µM and 14.6 µM and 31.7 µM | > 100 µM and 62.3 µM and 95.8 µM | 16.3 µM and 15.5 µM and 45.6 µM | 41.3 µM and 49.8 µM and > 100 µM | 7.45 µM and 15.1 µM and 29.3 µM | 58.9 µM and 45.7 µM and > 100 µM |  | 95 µM and 30.8 µM and > 100 µM |
| C/C(=N\NC(=O)CC#N)C(CN1CCCCC1)C(c1ccccc1)c1c(O)c2ccccc2oc1=O (configuration not stated) |  | 63.3 µM |  | > 100 µM |  | > 100 µM |  | 82.5 µM |  | > 100 µM |  | > 100 µM |  | > 100 µM |  | > 100 µM |  | > 100 µM |  | > 100 µM |
| COc1cccc(-n2ncc3c(N/N=C/c4ccc(C)cc4)ncnc32)c1 | > 25 µM | > 25 µM | > 25 µM | > 25 µM | > 25 µM | > 25 µM | > 5.43 µM | > 25 µM | > 25 µM | > 25 µM | > 25 µM | > 25 µM | > 25 µM | > 25 µM | > 25 µM | > 25 µM | > 25 µM | > 25 µM | > 25 µM | > 25 µM |
| COC12C=C/C(=C(/C(=O)OCCSc3ccnn3C)C(=O)CCCCCCCCC3(OC)C=C/C(=C(/C(=O)OCCSc4ccnn4C)C(=O)CCCCCCCC1)O3)O2 | 0.929 µM | 2.63 µM | 1.15 µM | 12.1 µM | 2.35 µM | > 32.5 µM | 0.645 µM | 2.2 µM | 1.16 µM | 5.24 µM | 0.827 µM | 1.76 µM | 0.999 µM | 4.9 µM | 1.07 µM | 4.12 µM | 0.895 µM | 2.65 µM | 1.46 µM | > 32.5 µM |
| Cc1c(N)nc([C@H](CC(N)=O)NC[C@H](N)C(N)=O)nc1C(=O)N[C@H](C(=O)N[C@H](C)[C@@H](O)CC(=O)N[C@H](C(=O)NC(O[C@@H]1O[C@@H](C)[C@@H](N)[C@@H](O)[C@H]1O)C(O)c1nc(-c2nc(C(=O)NCCCCN)cs2)cs1)[C@@H](C)O)[C@@H](O[C@@H]1O[C@@H](CO)[C@@H](O)[C@H](O)[C@@H]1O[C@H]1O[C@H](CO)[C@@H](O)[C@H](OC(N)=O)[C@@H]1O)c1c[nH]cn1 (some centres not stated) |  | > 50 µM |  | > 50 µM |  | > 50 µM |  | > 50 µM |  | > 50 µM |  | > 50 µM |  | > 50 µM |  | > 50 µM |  | > 50 µM |  | > 50 µM |
| O=C(O)/C=C/c1ccc[c]([Sb](=[O])([OH])[OH])c1 | > 100 µM | > 100 µM | > 100 µM | > 100 µM | > 100 µM | > 100 µM | > 100 µM | > 100 µM |  |  | > 100 µM | > 100 µM |  |  | > 100 µM | > 100 µM | > 100 µM | > 100 µM | > 100 µM | > 100 µM |
| O=C(O)CNc1ccc(Cl)c(Cl)c1 |  | 78.5 µM |  | 64.8 µM |  | 58.7 µM |  | 86.5 µM |  | > 100 µM |  | > 100 µM |  | 94.1 µM |  | 92.6 µM |  | 55.2 µM |  | 26.3 µM |
| COc1cc(-c2nn(-c3cccc(NC(=O)NCCNS(=O)(=O)c4ccc(Cl)cc4)c3)cc2-c2ccncc2)ccc1Cl | 0.466 µM | > 100 µM | 2.15 µM | > 100 µM | 2.81 µM | 9.26 µM | 0.578 µM | 4.31 µM | 0.48 µM | 2.11 µM | 1.45 µM | 14.3 µM | 0.353 µM | > 100 µM | 1.5 µM | 5.78 µM |  |  | 1.18 µM | > 100 µM |
| Cc1cn(CCC(N)C(=O)O)c(=O)[nH]c1=O (configuration not stated) |  | > 100 µM |  | > 100 µM |  | > 100 µM |  | > 100 µM |  | > 100 µM |  | > 100 µM |  | > 100 µM |  | > 100 µM |  | > 100 µM |  | > 100 µM |
| O=C1/C(=C/c2ccc(F)c(F)c2)CN(C(=O)C(Cl)Cl)C/C1=C\c1ccc(F)c(F)c1 | 0.113 µM | 0.97 µM | 0.188 µM | 0.506 µM | 0.258 µM | 0.84 µM | 0.183 µM | 0.55 µM | 0.094 µM | 0.276 µM | 1.13 µM | 5.72 µM | 0.29 µM | 1.3 µM | 0.181 µM | 0.357 µM | 0.0186 µM | 0.0871 µM | 0.0609 µM | 0.264 µM |
